Source: patent US10717720B2, “Modified compound of andrographolide” (Heilongjiang Zhenbaodao Pharmaceutical Co., Ltd., priority 2015, dated 2020)

Tested on: LPS-induced IL-6 release level from THP-1 cells
Assay: Test of IL-6 release from THP-1 cells (LPS-induced, IL-6 in supernatant detected by CBA)
Format: cell-based
Conditions: Homo sapiens; inflammatory factor IL-6 detected by CBA; compound 10 uM; LPS-stimulated THP-1 cells, supernatant after 24 hours; read-out: Inhibition rate @ 10 uM
Experimental: Test of IL-6 Release from THP-1 Cells
The inhibitory effect of the compound on LPS-induced IL-6 release level from THP-1 cells was evaluated by measuring the level of IL-6 in the cell culture supernatant.
4 ul was taken from each above solution and added to lml of culture solution to make 120 uM, 40 uM, 12 uM, 4 uM. 50 ul per well was taken and added to wells with cells to give final concentrations of 30 uM, 10 uM, 3 uM, and 1 uM, respectively. Dexamethasone was added as a positive drug into an individual cell well with a final concentration of 100 nM. • c) Cell stimulation
The LPS 1 mg/ml solution was diluted to 800 ng/ml with the culture solution and added to the cell culture wells at 50 ul/well. • d) Cell incubation and detection
The cell culture plate was placed in a 37° C. incubator, and the supernatant was collected after culturing for 24 hours. The level of IL-6 in the supernatant was detected by CBA.

Row | Structure (SMILES) | inhibition at 10 µM
1 | C=C1CCC2[C@]3(C)CO[C@@H](C4CCCC4)O[C@@H]3CC[C@@]2(C)[C@@H]1CCOc1cnn(C)c1 (stereo partly drawn) [Compound 289, 4-(2-((3R,4aR,6aS,7R,10bR)-3-cyclopentyl-6a,10b-dimethyl-8-dihydromethylenedecahydro-1H-naphtho[2,1-d][1,3]dioxin-7-yl)ethoxy)-2-methyl-1H-pyrazole] | > 60%
2 | C=C1CCC2[C@]3(C)CO[C@@H](C4CCCC4)O[C@@H]3CC[C@@]2(C)[C@@H]1CCOC1CCN(CCO)CC1 (stereo partly drawn) [Compound 482, 2-(4-(2-((3R,4aR,6aS,7R,10bR)-3-cyclopentyl-6a,10b-dimethyl-8-dihydromethylenedecahydro-1H-naphtho[2,1-d][1,3]dioxin-7-yl)ethoxy)piperidine-1-yl)ethanol] | > 60%
3 | C=C1CCC2[C@]3(C)CO[C@@H](C4CCCC4)O[C@@H]3CC[C@@]2(C)[C@@H]1CCn1cc(C(=O)O)cn1 (stereo partly drawn) [Compound 458, 1-(2-((3R,4aR,6aS,7R,10bR)-3-cyclopentyl-6a,10b-dimethyl-8-dihydromethylene-1H-naphtho[2,1-d][1,3]dioxin-7-yl)ethyl)-1H-pyrazole-4-carboxylic acid] | 30 to 60%
4 | C=C1CCC2[C@]3(C)CO[C@@H](c4ccc(F)c(F)c4)O[C@@H]3CC[C@@]2(C)[C@@H]1CCN1C(=O)CCC1=O (stereo partly drawn) [Compound 214, 1-(2-((3R,4aR,6aS,7R,10bR)-3-(3,4-difluorophenyl)-6a, 10b-dimethyl-8-methylenedecahydro-1H-naphtho[2,1-d][1,3]dioxin-7-yl)ethyl)pyrrolidine-2,5-dione] | > 60%
5 | C=C1CCC2[C@]3(C)CO[C@@H](C4CCCC4)O[C@@H]3CC[C@@]2(C)[C@@H]1CCOc1cccc(F)c1C(=O)O (stereo partly drawn) [Compound 452, 2-(2-((3R,4aR,6aS,7R,10bR)-3-cyclopentyl-6a,10b-dimethyl-8-dihydromethylenedecahydro-1H-naphtho[2,1-d][1,3]dioxin-7-yl)ethoxy)-6-fluoro-benzoic acid] | 30 to 60%
6 | C=C1CCC2[C@]3(C)CO[C@@H](C(C)C)O[C@@H]3CC[C@@]2(C)[C@@H]1CCOc1ccncc1 (stereo partly drawn) [Compound 411, 4-(2-((3R,4aR,6aS,7R,10bR)-3-isopropyl-6a,10b-dimethyl-8-dihydromethylenedecahydro-1H-naphtho[2,1-d][1,3]dioxin-7-yl)ethoxy)pyridine] | > 60%
7 | C=C1CCC2[C@](C)(CO)[C@H](O)CC[C@@]2(C)[C@@H]1CCOc1ccncc1 (stereo partly drawn) [Compound 385, (1R,2R,4aS,5R)-1-(hydroxymethyl)-1,4a-dimethyl-6-dihydromethylene-5-(2-(pyridin-4-oxy)ethyl) decahydronaphthalene-2-ol] | > 60%
8 | C=C1CCC2[C@]3(C)CO[C@@H](C4CCCC4)O[C@@H]3CC[C@@]2(C)[C@@H]1CCNc1cnoc1 (stereo partly drawn) [Compound 207, N-(2-((3R,4aR,6aS,7R,10bR)-3-cyclopentyl-6a,10b-dimethyl-8-decahydromethylene-1H-naphtho[2,1-d][1,3]dioxin-7-yl)ethyl)isoxazol-4-amine] | 30 to 60%
9 | C=C1CCC2[C@]3(C)CO[C@@H](C4CCCC4)O[C@@H]3CC[C@@]2(C)[C@@H]1CCOC1CCN(C)CC1 (stereo partly drawn) [Compound 366, 4-(2-((3R,4aR,6aS,7R,10bR)-3-cyclopentyl-6a,10b-dimethyl-8-dihydromethylenedecahydro-1H-naphtho[2,1-d][1,3]dioxin-7-yl)ethoxy)-1-methylpiperidine] | > 60%
10 | C=C1CCC2[C@]3(C)CO[C@@H](C4CCCC4)O[C@@H]3CC[C@@]2(C)[C@@H]1CCN(CCO)CCO (stereo partly drawn) [Compound 191, 3-((2-((3R,4aR,6aS,7R,10bR)-3-cyclopentyl-6a,10b-dimethyl-8-methylene-decahydro-1H-naphtho[2,1-d][1,3]dioxin-7-yl)ethyl)amino)N,N-diethanolamine] | < 30%
